Data on 23 compounds can be found in ChEMBL document CHEMBL1136116 (Bioorg Med Chem Lett, 2003).

Assay [1] has as its target Cyclin-dependent kinase 2/cyclin E (Homo sapiens, UniProt P24941). As to the kind of experiment: Inhibitory activity against Cyclin-dependent kinase 2-cyclin E. It counts as protein-complex assay.
In assay [2] the target is Cyclin-dependent kinase 1/cyclin B (Homo sapiens, UniProt P06493). The assay is described as follows: Inhibition of Cyclin-dependent kinase 1-cyclin B. It counts as protein-complex assay.
The target of assay [3] is Cyclin-dependent kinase 4/cyclin D (Homo sapiens, UniProt P11802). The assay is described as follows: Inhibition of CDK4-Cyclin D. The assay is classed as protein-complex assay.
Assay [4] has as its system A2780. As to the kind of experiment: Cytotoxic effect on ovarian cancer cell line (A2780). It counts as functional, cell-based. To be noted: Homo sapiens.

For orientation: IC50 means the concentration at which inhibition is half-maximal. As to `CCCCOc1c(C(=O)c2ccc(C)cc2)cnc2[nH]ncc12`, in assay [1], half-maximal inhibition (IC50) was put at 210 nM.

Turning to `CCCCOc1c(C(=O)c2c(F)cc(Cl)cc2F)cnc2[nH]ncc12`, the IC50 amounted to 27 nM in assay [1], 13 nM in assay [2] and 310 nM in assay [3].

In the case of `CCCCOc1c(C(=O)c2c(F)cccc2F)cnc2[nH]ncc12`, the IC50 was found to be 64 nM in assay [1], 32 nM in assay [2] and 21000 nM in assay [3].

In assay [1], `CCCCOc1c(C(=O)c2cccnc2)cnc2[nH]ncc12` came in with an IC50 of 2400 nM.

`CCCCOc1c(S(=O)(=O)c2ccccc2)cnc2[nH]ncc12` returned an IC50 in assay [1] of 520 nM.

Turning to `CCCCOc1c(C(=O)c2nccs2)cnc2[nH]ncc12`, the results for the IC50 in assay [1] and in assay [2] were 210 nM and 450 nM, respectively.

On to `CCCCOc1c(C(=O)c2ccccc2)cnc2[nH]ncc12` [SQ-67563], for which the IC50 in assay [3] was greater than 25000 nM.

As to `CCCCOc1c(C(=O)c2ccco2)cnc2[nH]ncc12`, the IC50 came to 180 nM in assay [1] and 280 nM in assay [2].

The compound `CCCCOc1c(C(=O)C2CC2)cnc2[nH]ncc12` gave an IC50 in assay [1] of 2700 nM.

Turning to `CCCCOc1c(C(=O)c2c(F)cc(OC)cc2F)cnc2[nH]ncc12`, the IC50 amounted to 22 nM in assay [1], 7 nM in assay [2] and 230 nM in assay [3].

In assay [1], `CCCCOc1c(C(=O)c2c(C)cc(C)cc2C)cnc2[nH]ncc12` displayed an IC50 greater than 1000 nM.

The compound `CCCCOc1c(C(=O)OC)cnc2[nH]ncc12` registered an IC50 in assay [1] greater than 10000 nM.

As for `CCCCOc1c(C(=O)c2c(F)cc(C)cc2F)c[nH]c2nncc1-2`, the IC50 was 9 nM in assay [1], 6 nM in assay [2], 760 nM in assay [4] and 230 nM in assay [3].

In turn, `CCCCOc1c(C(=O)c2cccc(C)c2)cnc2[nH]ncc12` yielded an IC50 in assay [1] of 660 nM. This counts as sub-micromolar.

`CCCCOc1c(C(=O)NCC)cnc2[nH]ncc12` returned an IC50 in assay [1] of 8100 nM.

In turn, `CCCCOc1c(C(C)=O)cnc2[nH]ncc12` returned an IC50 in assay [1] greater than 1000 nM.

`CCCCOc1c([S+]([O-])c2ccccc2)cnc2[nH]ncc12` (stereo not given): in assay [1], the IC50 stood at 340 nM.

`CCCCOc1c(C(=O)Nc2ccccc2)cnc2[nH]ncc12` had an IC50 in assay [1] of 19000 nM.

As for `CCCCOc1c(C(=O)Cc2ccccc2)cnc2[nH]ncc12`, in assay [1], the IC50 was greater than 1000 nM.

As for `CCCCOc1c(C(=O)c2ccccc2F)cnc2[nH]ncc12`, the IC50 in assay [1] was determined as 36 nM; in assay [2] it was 360 nM; in assay [3], 24000 nM.

Consider `CCCCOc1c(C(=O)c2ccccc2C)cnc2[nH]ncc12`, for which the IC50 in assay [1] amounted to 730 nM; in assay [2], 410 nM.

As to `CCCCOc1c(C(=O)c2cccs2)cnc2[nH]ncc12`, the IC50 in assay [1] was determined as 200 nM; in assay [2], 230 nM.

As to `CCCCOc1c(C(=O)c2c(F)cc(Br)cc2F)cnc2[nH]ncc12`, the IC50 in assay [1] turned out to be 20 nM; in assay [2] it was 17 nM; in assay [3], 370 nM.
